Measurements taken from ChEMBL document CHEMBL6182949 (J Med Chem, 2025).

Key:
[1] = molecular target: T1, Protein cereblon/Interleukin-1 receptor-associated kinase 4 (Homo sapiens, UniProt Q9NWZ3+Q96SW2); experiment: PROTAC activity at CRBN/IRAK4 in human THP-1 cells assessed as induction of IRAK4 degradation incubated for 24 hrs by HiBiT lytic reagent based analysis; type: cell-based
Target sequence in this assay (Q9NWZ3 whole entry): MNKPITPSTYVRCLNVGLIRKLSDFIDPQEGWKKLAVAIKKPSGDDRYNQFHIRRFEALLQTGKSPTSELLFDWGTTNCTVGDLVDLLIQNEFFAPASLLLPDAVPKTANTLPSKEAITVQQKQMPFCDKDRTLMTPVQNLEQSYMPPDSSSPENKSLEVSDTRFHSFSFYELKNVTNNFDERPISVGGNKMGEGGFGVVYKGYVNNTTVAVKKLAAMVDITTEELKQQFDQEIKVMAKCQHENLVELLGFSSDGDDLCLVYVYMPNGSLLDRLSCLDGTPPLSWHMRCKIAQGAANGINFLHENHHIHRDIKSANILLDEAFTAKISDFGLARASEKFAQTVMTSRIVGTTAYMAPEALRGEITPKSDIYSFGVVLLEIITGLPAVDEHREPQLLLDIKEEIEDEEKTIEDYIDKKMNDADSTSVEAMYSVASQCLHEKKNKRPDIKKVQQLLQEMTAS
Target sequence in this assay (Q96SW2 whole entry): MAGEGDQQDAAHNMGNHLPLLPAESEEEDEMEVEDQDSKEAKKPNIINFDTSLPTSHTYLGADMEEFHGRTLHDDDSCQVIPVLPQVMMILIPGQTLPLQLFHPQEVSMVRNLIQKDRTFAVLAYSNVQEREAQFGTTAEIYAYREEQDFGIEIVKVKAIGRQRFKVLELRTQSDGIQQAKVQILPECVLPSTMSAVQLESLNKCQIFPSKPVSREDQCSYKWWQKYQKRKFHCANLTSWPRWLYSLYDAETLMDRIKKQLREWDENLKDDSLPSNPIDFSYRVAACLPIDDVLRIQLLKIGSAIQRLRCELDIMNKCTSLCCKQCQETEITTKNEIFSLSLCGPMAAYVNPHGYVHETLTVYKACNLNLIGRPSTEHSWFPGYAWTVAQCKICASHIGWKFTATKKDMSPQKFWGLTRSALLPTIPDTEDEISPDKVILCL

[2] = molecular target: T1, Protein cereblon/Interleukin-1 receptor-associated kinase 4; experiment: PROTAC activity at CRBN/IRAK4 in human THP-1 cells assessed as induction of IRAK4 degradation incubated for 24 hrs by HiBiT lytic reagent based analysis relative to control; type: cell-based
Target sequence in this assay (Q96SW2 whole entry, looked up): as the sequence (Q96SW2 whole entry) above
Target sequence in this assay (Q9NWZ3 whole entry, looked up): as the sequence (Q9NWZ3 whole entry) above

[3] = molecular target: Voltage-gated inwardly rectifying potassium channel KCNH2 (Homo sapiens, UniProt Q12809); experiment: Inhibition of hERG expressed in HEK293 cells by manual patch clamp assay; type: toxicity, cell-based; parameters: concentration or dose not given beside the values
Voltage-gated inwardly rectifying potassium channel KCNH2, sequence (Q12809 whole entry): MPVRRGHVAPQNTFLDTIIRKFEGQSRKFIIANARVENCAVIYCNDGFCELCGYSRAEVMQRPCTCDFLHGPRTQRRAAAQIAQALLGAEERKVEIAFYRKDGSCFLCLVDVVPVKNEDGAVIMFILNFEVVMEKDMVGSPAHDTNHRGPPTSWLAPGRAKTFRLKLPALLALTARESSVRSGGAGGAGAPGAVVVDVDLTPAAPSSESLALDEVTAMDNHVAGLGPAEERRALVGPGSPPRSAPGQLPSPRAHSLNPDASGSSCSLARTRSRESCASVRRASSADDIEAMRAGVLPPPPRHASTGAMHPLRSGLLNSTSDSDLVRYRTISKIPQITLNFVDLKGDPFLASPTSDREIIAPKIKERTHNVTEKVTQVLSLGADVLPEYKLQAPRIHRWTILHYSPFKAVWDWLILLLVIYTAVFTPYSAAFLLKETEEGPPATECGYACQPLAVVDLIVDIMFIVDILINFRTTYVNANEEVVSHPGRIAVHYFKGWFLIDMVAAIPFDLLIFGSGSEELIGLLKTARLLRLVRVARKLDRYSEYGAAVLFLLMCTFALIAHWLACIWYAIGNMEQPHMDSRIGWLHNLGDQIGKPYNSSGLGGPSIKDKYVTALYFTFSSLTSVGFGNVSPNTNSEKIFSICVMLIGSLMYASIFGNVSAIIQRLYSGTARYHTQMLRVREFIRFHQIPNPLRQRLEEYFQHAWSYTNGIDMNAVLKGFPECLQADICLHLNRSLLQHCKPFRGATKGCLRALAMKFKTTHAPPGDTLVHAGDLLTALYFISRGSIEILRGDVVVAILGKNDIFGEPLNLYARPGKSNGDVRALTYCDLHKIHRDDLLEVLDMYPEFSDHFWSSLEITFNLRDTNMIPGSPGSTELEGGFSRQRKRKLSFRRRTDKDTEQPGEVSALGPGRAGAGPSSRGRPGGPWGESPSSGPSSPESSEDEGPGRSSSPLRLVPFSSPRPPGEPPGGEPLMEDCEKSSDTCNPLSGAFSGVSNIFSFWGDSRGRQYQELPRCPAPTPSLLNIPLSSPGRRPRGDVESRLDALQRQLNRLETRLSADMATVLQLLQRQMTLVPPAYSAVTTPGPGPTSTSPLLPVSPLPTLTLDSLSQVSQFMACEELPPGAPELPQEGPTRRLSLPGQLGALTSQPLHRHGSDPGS

[4] = Metabolic stability in human liver microsome assessed as half life at 1 uM measured up to 60 mins in presence of NADPH by LC-MS/MS analysis; type: ADME; settings: liver microsomes
[5] = Metabolic stability in cynomolgus monkey liver microsome assessed as half life at 1 uM measured up to 60 mins in presence of NADPH by LC-MS/MS analysis; type: ADME, Macaca fascicularis; settings: liver microsomes
[6] = Metabolic stability in dog liver microsome assessed as half life at 1 uM measured up to 60 mins in presence of NADPH by LC-MS/MS analysis; type: ADME, Canis lupus familiaris; settings: liver microsomes
[7] = Metabolic stability in rat liver microsome assessed as half life at 1 uM measured up to 60 mins in presence of NADPH by LC-MS/MS analysis; type: ADME; settings: liver microsomes
[8] = Metabolic stability in mouse liver microsome assessed as half life at 1 uM measured up to 60 mins in presence of NADPH by LC-MS/MS analysis; type: ADME; settings: liver microsomes
hERG (KCNH2) [9] = molecular target: T2, hERG (KCNH2) (Homo sapiens, UniProt Q12809); experiment: Inhibition of hERG expressed in HEK293 cells at 3 uM by manual patch clamp assay relative to control; type: toxicity, cell-based; settings: HEK293 cells expressing hERG
T2 sequence (Q12809 whole entry): as above

hERG (KCNH2) [10] = molecular target: T2, hERG (KCNH2); experiment: Inhibition of hERG expressed in HEK293 cells at 1 uM by manual patch clamp assay relative to control; type: toxicity, cell-based; settings: HEK293 cells expressing hERG

| Compound | DC50 [1] | Emax [2] | inhibition (INH) [3] | half-life at 1 µM [4] | half-life at 1 µM [5] | half-life at 1 µM [6] | half-life at 1 µM [7] | half-life at 1 µM [8] | inhibition at 3 µM (hERG (KCNH2) [9]) | inhibition at 1 µM (hERG (KCNH2) [10]) |
| --- | --- | --- | --- | --- | --- | --- | --- | --- | --- | --- |
| Cn1c(=O)n(C2CCC(=O)NC2=O)c2cccc(CN3CC4(CCN(CCN5CCC6(CC5)Cc5cc(NC(=O)c7cnn8cccnc78)c(N7CCC(CO)CC7)cc5O6)CC4)C3)c21 (stereo not drawn) | 1.66 nM | 95% | 6% | – | – | – | – | – | – | – |
| Cn1c(=O)n(C2CCC(=O)NC2=O)c2cccc(C#CCO[C@H]3CC[C@H](CN4CCC5(CC4)Cc4cc(NC(=O)c6cnn7cc(Cl)cnc67)c(N6CCC(CO)CC6)cc4O5)CC3)c21 (stereo partly drawn) | 2.27 nM | 87% | – | > 3.07 h | 1.87 h | > 3.07 h | 2.1 h | 1.3 h | 2% | – |
| Cn1c(=O)n(C2CCC(=O)NC2=O)c2cccc(C#CCO[C@H]3CC[C@H](CN4CCC5(CCc6cc(NC(=O)c7cnn8cccnc78)c(N7CCC(CO)CC7)cc6O5)CC4)CC3)c21 (stereo partly drawn) | 8.48 nM | 46% | – | – | – | – | – | – | – | – |
| Cn1c(=O)n(C2CCC(=O)NC2=O)c2cccc(C#CCO[C@H]3CC[C@H](C(=O)N4CCC5(CC4)Cc4cc(NC(=O)c6cnn7cccnc67)c(N6CCC(CO)CC6)cc4O5)CC3)c21 (stereo partly drawn) | 2.78 nM | 86% | – | 0.65 h | – | > 3.07 h | – | 1.05 h | – | 2% |
| Cn1c(=O)n(C2CCC(=O)NC2=O)c2cccc(C#CCO[C@H]3CC[C@@](F)(CN4CCC5(CC4)Cc4cc(NC(=O)c6cnn7cccnc67)c(N6CCC(CO)CC6)cc4O5)CC3)c21 (stereo partly drawn) | 14.8 nM | 91% | – | 0.117 h | – | 0.0167 h | – | 0.267 h | – | 8% |
| Cn1c(=O)n(C2CCC(=O)NC2=O)c2cccc(C#CCO[C@H]3CC[C@H](CN4CCC5(CC4)Cc4cc(NC(=O)c6cnn7cc(C#N)cnc67)c(N6CCC(CO)CC6)cc4O5)CC3)c21 (stereo partly drawn) | 2.81 nM | 89% | – | > 3.07 h | 1.07 h | > 3.07 h | 2.45 h | 1.98 h | 29% | – |
| Cn1c(=O)n(C2CCC(=O)NC2=O)c2cccc(CCCOCCNCCN3CCC4(CC3)Cc3cc(NC(=O)c5cnn6cccnc56)c(N5CCC(CO)CC5)cc3O4)c21 (stereo not drawn) | 1.86 nM | 68% | 2% | – | – | – | – | – | – | – |
| COCC1CCN(c2cc3c(cc2NC(=O)c2cnn4cccnc24)CC2(CCN(C[C@H]4CC[C@H](OCC#Cc5cccc6c5n(C)c(=O)n6C5CCC(=O)NC5=O)CC4)CC2)O3)CC1 (stereo partly drawn) | 3.9 nM | 62% | – | – | – | – | – | – | – | – |
| CN(CCCO)c1cc2c(cc1NC(=O)c1cnn3cccnc13)CC1(CCN(C[C@H]3CC[C@H](OCC#Cc4cccc5c4n(C)c(=O)n5C4CCC(=O)NC4=O)CC3)CC1)O2 (stereo partly drawn) | 6.92 nM | 68% | – | – | – | – | – | – | – | – |
| Cn1c(=O)n(C2CCC(=O)NC2=O)c2cccc(CN3CCC(CCN4CCC5(CC4)Cc4cc(NC(=O)c6cnn7cccnc67)c(N6CCC(CO)CC6)cc4O5)CC3)c21 (stereo not drawn) | 1.09 nM | 92% | 28% | 0.733 h | 0.217 h | 1.55 h | 0.817 h | 1.1 h | – | – |
| Cn1c(=O)n(C2CCC(=O)NC2=O)c2cccc(C#CCOCCNCCN3CCC4(CC3)Cc3cc(NC(=O)c5cnn6cccnc56)c(N5CCC(CO)CC5)cc3O4)c21 (stereo not drawn) | 1.17 nM | 89% | 8% | – | – | – | – | – | – | – |
| Cn1c(=O)n(C2CCC(=O)NC2=O)c2cccc(C#CCO[C@H]3CC[C@](F)(CN4CCC5(CC4)Cc4cc(NC(=O)c6cnn7cccnc67)c(N6CCC(CO)CC6)cc4O5)CC3)c21 (stereo partly drawn) | – | 88% | – | > 3.07 h | – | > 3.07 h | – | > 3.07 h | 8% | – |
| Cn1c(=O)n(C2CCC(=O)NC2=O)c2cccc(C#CCO[C@H]3CC[C@@H](CN4CCC5(CC4)Cc4cc(NC(=O)c6cnn7cccnc67)c(N6CCC(CO)CC6)cc4O5)CC3)c21 (stereo partly drawn) | 3.44 nM | 89% | – | 0.817 h | 0.183 h | 0.0167 h | 1.47 h | 1.98 h | – | 34% |
| Cn1c(=O)n(C2CCC(=O)NC2=O)c2cccc(C#CCO[C@H]3CC[C@H](CN4CCC5(CC4)Oc4cc(NC(=O)c6cnn7cccnc67)c(N6CCC(CO)CC6)cc4O5)CC3)c21 (stereo partly drawn) | 10.4 nM | 78% | – | – | – | – | – | – | – | – |
| Cn1c(=O)n(C2CCC(=O)NC2=O)c2cccc(C#CCO[C@H]3CC[C@H](CN4CCC5(CC4)Oc4cc(N6CCC(CO)CC6)c(NC(=O)c6cnn7cccnc67)cc4C5=O)CC3)c21 (stereo partly drawn) | 1000 nM | 20% | – | – | – | – | – | – | – | – |
| Cn1c(=O)n(C2CCC(=O)NC2=O)c2cccc(C#CCO[C@H]3CC[C@H](CN4CCC5(CC4)Cc4cc(NC(=O)c6cnn7cccnc67)c(OC(F)F)cc4O5)CC3)c21 (stereo partly drawn) | 13 nM | 83% | – | – | – | – | – | – | – | – |
| Cn1c(=O)n(C2CCC(=O)NC2=O)c2cccc(C#CCOC3CCN(CCN4CCC5(CC4)Cc4cc(NC(=O)c6cnn7cccnc67)c(N6CCC(CO)CC6)cc4O5)CC3)c21 (stereo not drawn) | 2.18 nM | 88% | – | 0.383 h | 0.0333 h | 1.47 h | 1.47 h | > 3.07 h | – | – |
| Cn1c(=O)n(C2CCC(=O)NC2=O)c2cccc(C#CCO[C@H]3CC[C@H](CN4CCC5(CC4)Cc4cc(NC(=O)c6cnn7cccnc67)c(N6CCC(CO)CC6)cc4C5)CC3)c21 (stereo partly drawn) | 2.77 nM | 78% | – | – | – | – | – | – | 46% | – |
| Cn1c(=O)n(C2CCC(=O)NC2=O)c2cccc(C#CCO[C@H]3CC[C@H](CN4CCC5(CC4)Cc4cc(NC(=O)c6cnn7cc(CO)cnc67)c(N6CCC(CO)CC6)cc4O5)CC3)c21 (stereo partly drawn) | 3.32 nM | 90% | – | > 3.07 h | > 3.07 h | > 3.07 h | > 3.07 h | 1.3 h | – | 4% |
| Cn1c(=O)n(C2CCC(=O)NC2=O)c2cccc(C#CCO[C@H]3CC[C@H](CN4CCC5(CC4)Cc4cc(NC(=O)c6cnn7cccnc67)c(OCCC(C)(C)O)cc4O5)CC3)c21 (stereo partly drawn) | 9.37 nM | 49% | – | – | – | – | – | – | – | – |
| Cn1c(=O)n(C2CCC(=O)NC2=O)c2cccc(C#CCOC3CCN(CC(=O)N4CCC5(CC4)Cc4cc(NC(=O)c6cnn7cccnc67)c(N6CCC(CO)CC6)cc4O5)CC3)c21 (stereo not drawn) | 2.18 nM | – | – | 0.15 h | – | 0.2 h | – | 1.67 h | 8% | – |
| CN(CCO)c1cc2c(cc1NC(=O)c1cnn3cccnc13)CC1(CCN(C[C@H]3CC[C@H](OCC#Cc4cccc5c4n(C)c(=O)n5C4CCC(=O)NC4=O)CC3)CC1)O2 (stereo partly drawn) | 6.44 nM | 44% | – | – | – | – | – | – | – | – |
| Cc1cnc2c(C(=O)Nc3cc4c(cc3N3CCC(CO)CC3)OC3(CCN(C[C@H]5CC[C@H](OCC#Cc6cccc7c6n(C)c(=O)n7C6CCC(=O)NC6=O)CC5)CC3)C4)cnn2c1 (stereo partly drawn) | 1.52 nM | 87% | – | > 3.07 h | – | > 3.07 h | – | > 3.07 h | 17% | – |
| Cn1c(=O)n(C2CCC(=O)NC2=O)c2cccc(C#CCO[C@H]3CC[C@H](CN4CCC5(Cc6cc(NC(=O)c7cnn8cccnc78)c(N7CCC(CO)CC7)cc6O5)C4)CC3)c21 (stereo partly drawn) | 2 nM | 84% | – | 1.67 h | – | > 3.07 h | – | > 3.07 h | – | 1% |
| Cn1c(=O)n(C2CCC(=O)NC2=O)c2cccc(C#CCO[C@H]3CC[C@@H](CN4CCC5(Cc6cc(NC(=O)c7cnn8cccnc78)c(N7CCC(CO)CC7)cc6O5)C4)CC3)c21 (stereo partly drawn) | 7.79 nM | 90% | – | 0.517 h | – | 0.583 h | – | 0.55 h | – | 29% |
| Cn1c(=O)n(C2CCC(=O)NC2=O)c2cccc(C#CCO[C@H]3CC[C@@H](CN4CCC5(CC4)Cc4cc(NC(=O)c6coc7cccnc67)c(N6CCC(CO)CC6)cc4O5)CC3)c21 (stereo partly drawn) | 3.69 nM | 86% | – | 0.333 h | – | 0.967 h | – | 2.05 h | – | 29% |
| Cn1c(=O)n(C2CCC(=O)NC2=O)c2cccc(C#CCO[C@H]3CC[C@H](CN4CCC5(CC4)Cc4cc(NC(=O)c6cnn7cccnc67)c(N6CCC(F)CC6)cc4O5)CC3)c21 (stereo partly drawn) | 6.38 nM | 85% | – | – | – | – | – | – | – | – |
| Cn1c(=O)n(C2CCC(=O)NC2=O)c2cccc(C#CCN3CCN(CC(=O)N4CCC5(CC4)Cc4cc(NC(=O)c6cnn7cccnc67)c(N6CCC(CO)CC6)cc4O5)CC3)c21 (stereo not drawn) | 2.76 nM | – | – | 0.05 h | – | 1.22 h | – | 1.4 h | 18% | – |
| Cn1c(=O)n(C2CCC(=O)NC2=O)c2cccc(C#CCOC3CCN(C(=O)CN4CCC5(CC4)Cc4cc(NC(=O)c6cnn7cccnc67)c(N6CCC(CO)CC6)cc4O5)CC3)c21 (stereo not drawn) | 1.92 nM | – | – | 0.0667 h | – | 0.1 h | – | 0.35 h | – | – |
| Cc1cc(-c2nc(C(=O)Nc3cc4c(cc3N3CCC(CO)CC3)OC3(CCN(C[C@H]5CC[C@H](OCC#Cc6cccc7c6n(C)c(=O)n7C6CCC(=O)NC6=O)CC5)CC3)C4)co2)ccn1 (stereo partly drawn) | 6.02 nM | 85% | – | 1.15 h | – | > 3.07 h | – | 1.68 h | – | 12% |
